# From patent US9850483B2, “Methods and systems for analysis of single cells” (The Board of Trustees of the Leland Stanford Junior …, priority 2010, dated 2017)
# System: murine breast cancer stem cells
# Experiment: Clonogenic ability of murine breast cancer stem cells (colony number)
# Type: cell-based
# Settings: short, 24 hour exposure to the inhibitor; p<0.02, t test
# Description: Many of these genes have been linked to self renewal and cancer. These include the insulin growth factor binding partner IGFBP3, the HOX family members HOXA3, HOXA5, ME1S1 as well as transcription factors like ETS1, ETS2, RUNX2 and STAT3. It was tested whether the transcription factor STAT3 is a bona fide cancer stem cell regulator. STAT3 plays a role in the maintenance of both ES cells and HSCs. […] Next, when we examined immunochemistry analysis of breast tumors the STAT3 positive cells tended to be concentrated on the invasive edge of the cancer and the protein was not seen in the more differentiated-looking cells in the interior parts of tumors. Finally, there are small molecule inhibitors of STAT3. Such inhibitors can be tested in cancer stem cell models. The effect of the STAT3 inhibitor cucurbitacin on the clonogenic ability of murine breast cancer stem cells was tested.
substance,measurement,value
cucurbitacin,reduction of the number of colonies,~50%
